This assay has as its system sunburned skin. Put plainly: topical treatment of sunburned skin. Type of assay: in vivo, human being. To be noted: compared with other anti-inflammatory drugs, such as Motrin® and Tolectin®. An excerpt: The present invention provides a method and composition for treating sunburned skin of a human being. The composition includes a mixture of indomethacin and a moisturizing lotion. […] It is believed that the skin, with the presence of the topical formulation, acts as a reservoir, absorbing large amounts of the indomethacin and slowly releasing the indomethacin into the skin and to other tissues. The skin may actually act as a depot or reservoir for the indomethacin. It is believed that the indomethacin is stabilized and solubilized by the moisturizing lotion wherein the moisturizing lotion enhances the absorption of the indomethacin through the skin and accordingly permits the drug to be employed topically for inflammation of the sunburned skin. […] This mixture level allows the Cetaphil® to act as a proper stabilizer and solubilizer for the indomethacin. A stronger or weaker indomethacin mixture may be created depending on the treatment. However, experimentation has shown that the above-noted mixture remains an effective mixture for the treatment of sunburned skin. In use, the disclosed amounts of indomethacin and Cetaphil® are mixed to create the appropriate composition. […] The moisturizing lotion provides moisture and a cooling sensation to the sunburned skin, and the indomethacin reduces the inflammation to the skin caused by the sunburn. […]

SMILES strings stand for the structures.

`COc1ccc2c(c1)c(CC(=O)O)c(C)n2C(=O)c1ccc(Cl)cc1` [indomethacin, 1-(p-chlorobenzoyl)-5-methoxy-2-methylindole-3-acetic acid]: the relieving sunburned skin entry is reported as “far better results”.
